Source: US8664276B2, “Stilbene analogs and methods of treating cancer” (University of Kentucky Research Foundation, priority 2011, dated 2014)

Assays:
MAT2A [1] = molecular target: T1, MAT2A (Homo sapiens, UniProt P31153); assay: Cell based SAM and SAH analysis in LS174 colon cancer cells (LC-MS/MS); set-up: endogenous in cells; host or cells: LS174T; conditions: 3 μM of 4dd versus 10 uM of 4r and 30 uM of resveratrol
Experimental: (§1) SAM and SAH analysis by LC-MS/MS. The LC-MS/MS system consisted of two Varian ProStar 210 LC Pumps coupled with a Varian 1200L triple quadrupole mass spectrometer. The separation was performed on a Hypercarb column (50 mm×2.1 mm, […], Thermo Scientific #35003-052130). Gradient elution started with 98% solution A (0.1% formic acid in water), followed by an increase to 38% solution B (0.1% formic acid in acetonitrile) in 8 min. The column was than flushed with 90% B for 5 min and regenerated with 98% A for another 8 min. The flow rate was 0.25 mL/min. Between the 3rd and 11th min, the eluent was switched to the ion source of the mass spectrometer. The precursor product transitions for SAM (m/z 399→250), SAH (m/z 385→250) and [d-4]-SAH (m/z 389→136) were monitored. The optimized ion source parameters were: Capillary Voltage: 32 V for both SAM and SAH, Collision energy: 9 V and 7V for SAM and SAH, respectively, Needle voltage: 5000 V and the Shield voltage: 600V. Nitrogen was used as the drying gas at a temperature of 300° C. and the interface heater was set to 50° C. The drying gas and nebulizing gas were set to 20 and 50 psi, respectively.
Cell based SAM analysis. […] 5 ul of supernatants were analyzed by LC-MS/MS using a modified method based on a previous publication (see Krijt et al., J Chromatogr B Analyt Technol Biomed Life Sci 877, 2061-6, (2009)). […]

LS174 CRC cells = assay: CRC cell proliferation assay (Vi-Cell); format: cell-based
Experimental: Luciferase and cell proliferation assay. HEK293T cells were transiently transfected in a 12-well plate with 0.2 μg of the Super8xTOPFlash reporter and 0.05 μg of Renilla luciferase reporter. Culture medium was changed after 12 h. After 6 h, cells were treated with DMSO or Wnt inhibitors for 12 h, and then treated with 25 mM LiCl or Wnt conditioned medium. After 12 h, cells were harvested and luciferase activity measured by Dual-luciferase Reporter Assay System (Promega, Madison Wis.). All conditions were done in triplicate and each experiment was carried out at least two times. For cell proliferation assay, CRC cells were treated with DMSO or inhibitors for 2d and 4d. The cell numbers and viability were analyzed by Vi-Cell Cell Viability Analyzer.
(§2) Western blot and cell proliferation assay. The activity of fluorinated N,N-dialkylaminostilbenes (FIDAS or FIDAS agents) on Wnt signaling activity in cancer cells were analyzed by Western blot with antibodies against Wnt target genes, such as c-Myc, Axin2. The effects of FlDAS agents on cancer cell growth were analyzed using Cell Viability Analyzer (Beckman Coulter, Vi-Cell XR). These assays have been described previously (see Zhang et al., J. of Med. Chem. 54, 1288-1297 (2011)).

Tolerability in mice = format: in vivo
Experimental: Therefore, as shown in this example, the halogenated stilbene analogs of the present disclosure are capable of inhibiting CRC both in vitro and in vivo. In another study, it was shown that mice could tolerate at least 200 mg/kg of a halogenated stilbene analog, FlDAS 4dd.

liver cancer cells = assay: Liver cancer cell proliferation; format: cell-based; conditions: FIG. 15
Experimental: as §2
As previously shown, several metabolites of the halogenated stilbenes of the present disclosure were synthesized (Example 2 and FIG. 3). In this study, the effects of some of these metabolites on cell proliferation were studied.

HT29 xenografted tumors = assay: HT29 tumor xenograft in nude mice, oral gavage; format: in vivo; conditions: HT29, 20 mg/kg in PEG400 by gavage
Experimental: Tumor xenograft in nude mice. LS174 or HT29 colon cancer cells (2×10^6) were injected subcutaneously into both flanks of 6-8 week C57BL/6J athymic nude mice as described in Zhang et al., Mol Cell Biol 2006, 26, 2055-2064. Compound 4r or 4dd was dissolved in corn oil or PEG400. The mice were treated with 20 mg/kg/day of 4r by ip injection or gavage (50 μl/mouse). Control mice were treated with same volume of corn oil or PEG400. The body weight and tumor growth were analyzed twice weekly for one month. Tumor size was measured using digital caliper. The tumor volume was calculated by the formula: V=½LW^2 (mm^3).
Xenografted nude mice were developed according to the protocol described above and in Zhang et al., J. of Med. Chem. 54, 1288-1297 (2011)). Briefly, HT29 cells were injected subcutaneously into the flanks of nude mice. The mice were then treated with 20 mg/kg compound 4dd dissolved in PEG400 by gavage. As described in Example 7, an IP injection of compound 4r dissolved in corn oil inhibited xenograft tumor growth. Here, it was also shown that the halogenated stilbenes of the present disclosure can also be dissolved in other solvents such as PEG400 and cyclodextran.

MAT2A [2] = molecular target: T1, MAT2A; assay: In-vitro SAM synthesis by MAT2A (LC-MS/MS); format: biochemical; set-up: GST (N); made in house
Experimental: as §1
SAM synthesis. […] purified MAT2A was incubated with 1 mM L-methionine and 1 mM ATP in […] reaction solution (50 mM Tris.Cl, 50 mM KCl, 10 mM MgCl2) for 5 min at 25° C. […] SAM was analyzed by LC-MS/MS. […]

[3] = test system: Wnt target genes, Axin2 and c-Myc; assay: Western blot of Wnt target proteins in LS174 CRC cells; format: cell-based
Experimental: Western blot. Western blots were performed using the following antibodies: β-catenin (Sigma, C2206), c-Myc (Epitomics, 1472-1), Axin2 (Cell Signaling, 2151), β-Actin (Sigma, A1978), TCF4 (Epitomics, 2114-1) and pygopus2 (Santa Cruz, sc-74878), Cyclin D1 (Cell signaling, 2926).
(§3) Cyclin B1 levels were decreased, whereas p21^WAF1/CIP1 levels increased, consistent with the fact that p21^WAF1/CIP1 expression is repressed by c-Myc. β-catenin levels were not affected by resveratrol. Next, the mRNA levels of β-catenin target genes were analyzed using RT-PCR. Expression of survivin, Lgr5, CD44, and c-Myc were decreased in resveratrol-treated cells.
A panel of stilbene analogs was designed and synthesized (FIGS. 2, 3, 5A and 6A). […] However, the solubility of 4d was poor and it was not effective below 10 μM concentrations (data not shown). To improve its solubility and activity, compound 4d was modified with 2′-fluoro 4e, 3′-fluoro 4f and 4′-fluoro 4g substituents (FIG. 5D). Both compounds 4e and 4f had good activity at 10 μM, (E)-4-(2-fluorostyryl)-N,N-dimethylaniline.
as §2

β-catenin target genes = assay: RT-PCR of β-catenin target genes in LS174 cells; format: cell-based; conditions: LS174 cells
Experimental: RT-PCR. LS174 cells were treated with DMSO or Wnt inhibitors. After 36 h, RNA was isolated using the RNeasy kit (Qiagen). RT-PCR was performed as described in Zhang et al., Mol Cell Biol 2006, 26, 2055-2064. The following primers were used: β-actin: 5′-CAACCGCGAGAAGATGAC-3′ (SEQ ID NO:01), 5′-AGGAAGGCTGGAAGAGTG-3′ (SEQ ID NO:02); surivivin: 5′-[…]-3′ (SEQ ID NO:03), 5′-[…]-3′ (SEQ ID NO:04); c-Myc: 5′-TGGGCTGTGAGGAGGTTTG-3′ (SEQ ID NO:05), 5′-TATGTGGAGCGGCTTCTCG-3′ (SEQ ID NO:06); Axin2: 5′-[…]-3′ (SEQ ID NO:07), 5′-[…]-3′ (SEQ ID NO:08); TCF4: 5′-[…]-3′ (SEQ ID NO:09), 5′-[…]-3′ (SEQ ID NO:10); pygopus2: 5′-GGCCGGTCTGCAAATGAAG-3′ (SEQ ID NO:11), 5′-TCCACCTCCAGTGCTGTAG-3′ (SEQ ID NO:12); Lgr5: 5′-[…]-3′ (SEQ ID NO:13), 5′-[…]-3′ (SEQ ID NO:14); CD44: 5′-[…]-3′ (SEQ ID NO:15), 5′-[…]-3′ (SEQ ID NO:16); Ki67: 5′-[…]-3′ (SEQ ID NO:17), 5′-[…]-3′ (SEQ ID NO:18).
as §3

Wnt signaling = assay: TopFlash luciferase reporter assay in HEK293T cells; format: cell-based; conditions: HEK293T
Experimental: Luciferase and cell proliferation assay. HEK293T cells were transiently transfected in a 12-well plate with 0.2 μg of the Super8xTOPFlash reporter and 0.05 μg of Renilla luciferase reporter. Culture medium was changed after 12 h. After 6 h, cells were treated with DMSO or Wnt inhibitors for 12 h, and then treated with 25 mM LiCl or Wnt conditioned medium. After 12 h, cells were harvested and luciferase activity measured by Dual-luciferase Reporter Assay System (Promega, Madison Wis.). All conditions were done in triplicate and each experiment was carried out at least two times. For cell proliferation assay, CRC cells were treated with DMSO or inhibitors for 2d and 4d. The cell numbers and viability were analyzed by Vi-Cell Cell Viability Analyzer. To identify Wnt pathway inhibitors for CRC prevention and treatment, a number of anti-cancer agents from plants were screened using the TopFlash reporter assay. The TopFlash reporter was transfected into HEK293T cells, and the cells were treated with Wnt3A-conditioned medium in order to activate the luciferase reporter. […] To determine if resveratrol regulates β-catenin degradation, the cells were treated with 25 mM LiCl, which inhibits GSK-3 and stabilizes β-catenin. In this assay, LiCl activated the reporter more strongly than Wnt3A conditioned medium. […] Emodin is an anti-cancer agent from plants; it exists in many unpurified resveratrol products. Emodin had no effect on Wnt signaling. See Zhang et al., J. of Med. Chem. 54, 1288-1297 (2011).

Solubility = format: physicochemical

CNc1ccc(/C=C/c2c(F)cccc2Cl)cc1 [4dd, (E)-4-(2-chloro-6-fluorostyryl)-N-methylaniline]
inhibition of MAT2A and reduction of SAM and SAH (MAT2A [1]): even more potent than 4r | colon cancer cell proliferation, effectiveness versus resveratrol and 4r (LS174 CRC cells; FIG. 14): significantly more effective than resveratrol, as well as compound 4r | tolerated dose (Tolerability in mice): at least 200 mg/kg | body weights (Tolerability in mice; 200 mg/kg (data not shown)): reduced after one week but were recovered to normal weight after stopping 4dd treatment | liver cancer cell proliferation, effectiveness versus resveratrol and 4r (liver cancer cells): significantly more effective than resveratrol, as well as compound 4r | effect on body weight (HT29 xenografted tumors): without any adverse effect | growth of xenografted tumors (HT29 xenografted tumors): significantly inhibits

Oc1ccc(/C=C/c2cc(O)cc(O)c2)cc1 [resveratrol, trans- or (E)-3,5,4′-trihydroxystilbene, reference compound]
MAT2A activity in SAM synthesis (MAT2A [2]): inhibit MAT2A activity | protein levels of TCF4 and pygopus2 ([3]; CRC cells): reduced | β-catenin levels ([3]; CRC cells): not affected | Cyclin B1 levels ([3]; LS174 CRC cells): decreased | p21WAF1/CIP1 levels ([3]; LS174 CRC cells): increased | protein levels of c-Myc and Cyclin D1 ([3]; LS174 CRC cells): reduced | protein levels of Wnt/β-catenin targets at 100 μM ([3]; LS174 cells, 100 μM): reduced the protein levels | LS174 cell proliferation (LS174 CRC cells; treated for 2d and 4d): inhibited cell proliferation | cell proliferation marker Ki67 mRNA (β-catenin target genes): also decreased | mRNA expression of survivin, Lgr5, CD44, and c-Myc (β-catenin target genes): decreased | LiCl-induced Wnt signaling (Wnt signaling; 25 mM LiCl): strongly inhibited | Wnt-induced luciferase activity (Wnt signaling; Wnt3A-conditioned medium, 100 μM): significantly inhibited

CN(C)c1ccc(/C=C/c2ccccc2)cc1 [4d, (E)-4-styryl-N,N-dimethylaniline, reference compound]
repression of Wnt target genes at 30 μM ([3]; 30 μM, CRC cells): strongly repressed | Wnt inhibitory activity in Western blot, qualitative or relative to a comparator ([3]; CRC cells): more active than 4-methoxystilbene (4b) | effectiveness on Wnt target genes below 10 μM ([3]; below 10 μM concentrations (data not shown)): not effective | solubility (Solubility): poor
